Results taken from US20240279302A1, “OLFACTORY RECEPTOR EXPRESSING METHOD AND RESPONSE MEASUREMENT METHOD” (Kao Corporation, priority 2021, published 2024).
Numbering of substitutions follows the chain as printed.

T1: OR2T11 (Homo sapiens, UniProt Q8NH01)
T1 sequence (Q8NH01 1-316): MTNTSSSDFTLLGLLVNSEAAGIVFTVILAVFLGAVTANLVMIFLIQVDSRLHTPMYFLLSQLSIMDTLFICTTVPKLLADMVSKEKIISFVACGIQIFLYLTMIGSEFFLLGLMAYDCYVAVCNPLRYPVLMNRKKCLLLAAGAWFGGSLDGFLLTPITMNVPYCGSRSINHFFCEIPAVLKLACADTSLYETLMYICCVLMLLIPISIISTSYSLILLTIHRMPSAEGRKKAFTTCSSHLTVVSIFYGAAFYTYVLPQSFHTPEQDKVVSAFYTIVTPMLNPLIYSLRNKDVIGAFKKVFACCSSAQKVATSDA

B1: consensus OR2T29: consensus olfactory receptor polypeptide (protein)
chain: MANITWMANHTGRSDFILVGLFSQSKHPALLCVVIFVVFLMALSGNAILILLIHSDAHLHTPMYFFISQLSLMDVMYISVTVPKMLMDQVMGVNKISAPECGMQMFLYLTLAGSEFFLLAAMAYDRYVAICHPLRYPVLMNHRVCLLLVSGCWFLGSVDGFMLTPITMTFPFCRSREIHHFFCEVPAVMKLSCSDTSLYETLMYLCCVLMLLIPVTVISSSYSFILLTIHRMNSAEGRKKAFATCSSHMTVVILFYGAAVYTYMLPSSYHTPEKDMMVSVFYTILTPVLNPLIYSLRNKDVTGALKKMLNVGSVFQETIK
modifications: OR2T29 consensus-c
notes: consensus olfactory receptor polypeptide
B2: consensus OR2T5: consensus olfactory receptor polypeptide (protein)
chain: B1 chain with R13K, V149A
modifications: OR2T5 consensus-c
notes: as for B1
B3: consensus OR4K17: consensus olfactory receptor polypeptide (protein)
chain: MESMELLNQSQVSEFILLGLTSSQDIQFLLFALFSVIYVVTVLGNLLIVVTVFNTPNLNTPMYFLLGNLSFVDMTLASFATPKMILNLVKKQKTISFAGCFTQIFLLHLLGGVEMVLLVSMAYDRYVAICKPLHYMTIMNKKVCVLLVVTSWLLGLLHSGLQIPFVVNLPFCGPNVVDSIFCDLPLVTKLACIDTYFVQIVIVANSGMISLSCFIILLISYSLILITIRNHSSTGQSKARSTLTAHITVVILFFGPCIFIYIWPFSNHSVDKFLAVFYTIITPILNPIIYTLRNKEMKTAMKKLWRAFVNSREDT
modifications: OR4K17 consensus-c
notes: as for B1
B4: consensus OR4E2: consensus olfactory receptor polypeptide (protein)
chain: MDSLNQTRVTEFVFLGLTDNWVLEILFFMAFSAIYVLTLLGNILIIVTIVFTPRLHTPMYFFLSNLSFIDICHSSVTVPKMLEGLLLERKTISFDNCIAQLFFLHLFACAEIFLLTIMAYDRYVAICTPLHYPNVMNMRVCVQLVFALWLGGTVHSLVQTFLTIRLPYCGPNIIDSYFCDVPPVIKLACTDTYLTGMLIVSNSGTISLTCFLALVTSYTVILVSLRKQSAEGRRKALSTCSAHFMVVALFFGPCIFIYTRPDTSFSIDKVVSVFYTVVTPLLNPLIYTLRNEEVKSAMKQLRQRQVFFTKSY
modifications: OR4E2 consensus-c
notes: as for B1
B5: OR4S2: original human olfactory receptor OR4S2, SEQ ID NO: 18 (protein, listed as Homo sapiens)
chain: MEKINNVTEFIFWGLSQSPEIEKVCFVVFSFFYIIILLGNLLIMLTVCLSNLFKSPMYFFLSFLSFVDICYSSVTAPKMIVDLLAKDKTISYVGCMLQLFGVHFFGCTEIFILTVMAYDRYVAICKPLHYMTIMNRETCNKMLLGTWVGGFLHSIIQVALVVQLPFCGPNEIDHYFCDVHPVLKLACTETYIVGVVVTANSGTIALGSFVILLISYSIILVSLRKQSAEGRRKALSTCGSHIAMVVIFFGPCTFMYMRPDTTFSEDKMVAVFYTIITPMLNPLIYTLRNAEVKNAMKKLWGRNVFLEAKGK
B6: consensus OR2T1: consensus olfactory receptor polypeptide (protein)
chain: MEEYNTSSTDFTFMGLFNRKETSGLLFAIISIIFFTALMANGVMIFLIQTDLRLHTPMYFLLSHLSFIDMMYISTIVPKMLVDYLLGQRTISFVGCTAQHFLYLTLVGAEFFLLGLMAYDRYVAICNPLRYPVLMSRRVCWMIIAGSWFGGSLDGFLLTPITMSFPFCNSREINHFFCEAPAVLKLACADTALYETVMYVCCVLMLLIPFSVVIASYARILTTVHRMSSVEGRKKAFATCSSHMTVVTLFYGAAMYTYMLPHSYHKPAQDKVFSVFYTILTPMLNPLIYSLRNKDVTGALKRALGRFKGPQRVSGGVF
modifications: OR2T1 consensus-c
notes: as for B1
B7: consensus OR2T4: consensus olfactory receptor polypeptide (protein)
chain: MANITWMANHTGWSDFILVGLFRQSKHPALLCVVIFVVFLMALSGNAVLILLIHSDAHLHTPMYFFISQLSLMDMMYISVTVPKMLLDQVMGVNKISAPECGMQMFLYVTLAGSEFFLLATMAYDRYVAICHPLRYPVLMNHRVCLFLASGCWFLGSVDGFTFTPITMTFPFCRSREIHHFFCEVPAVLKLSCSDTSLYEIFMYLCCVLMLLIPVTVISSSYLFILLTIHRMNSAEGRKKAFATCSSHMTVVILFYGAAIYTYMLPSSYHTPEKDMMVSVFYTILTPVLNPLIYSLRNKDVMGALKKMLNVGPVFQETMK
modifications: OR2T4 consensus-c
notes: as for B1
B8: consensus OR2T27: consensus olfactory receptor polypeptide (protein)
chain: MEWGNYSMYADFVLLGLFSNTRFPWLLFALILLVFVISIASNTVMIILIHIDSRLHTPMYFLLSQLSLMDILYISTIVPKMLVDQVMGQRAISFAGCTAQHFLYLTLAGAEFFLLGLMSYDRYVAICNPLRYPVLMSRKVCLLIVAAAWLGGSIDGFLLTPVTMQFPFCASREINHFFCEVPALLKLSCTDTSAYETAMYVCCIMMLLIPFSVISASYTRILITVYRMSEAEGRRKAVATCSSHMVVVSLFYGAAMYTYVLPHSYHTPEQDKAVSAFYTILTPMLNPLIYSLRNKDVTGALQKALGRCVSSGKVTTF
modifications: OR2T27 consensus-c
notes: as for B1

Test system: HEK293 cells expressing olfactory receptor
Assay: Luciferase assay: signal to 100 μM sulfur compounds in the presence or absence of a copper ion
Assay type: cell-based, human
Details: 100 μM odorant
Protocol: A reaction solution as to each consensus olfactory receptor prepared in Examples described above was prepared according to the composition shown in Table 4, left standing for 20 minutes in a clean bench, and then added to each well of a 96-well plate (Becton, Dickinson and Company). The original olfactory receptor was used as to OR4S2. Composition shown in Table 20 was used as to OR11H2 and OR4E2. Subsequently, 100 μL of HEK293 cells suspended in DMEM (Nacalai Tesque, Inc.) was inoculated at 2×10^5 cells/cm^2 to each well, and cultured for 24 hours in an incubator kept at 37° C. and 5% CO2. Cells expressing no olfactory receptor (Mock) were provided as a control.
[…] Under a copper ion addition condition, the test substance solution was adjusted to contain 30 μM copper(II) chloride (FUJIFILM Wako Pure Chemical Corp.) in addition to the odorant. The cells were cultured for 4 hours in a CO2 incubator and the luciferase gene was expressed sufficiently in the cells. Luciferase activity was measured using Dual-Glo™ luciferase assay system (Promega Corp.) in accordance with the operation manual of the product. A luminescence value derived from firefly luciferase induced by test substance stimulation in each well of the 96-well plate was divided by a luminescence value derived from Renilla luciferase to calculate a value (fluc/hRluc) as a signal, which was then used in analysis. The signal under each transfection condition was normalized with the signal value (fluc/hRluc) under an odorant stimulation-free condition defined as 0% and the signal value (fluc/hRluc) by stimulation with 10 μM forskolin defined as 100%, and used as a response (%) in analysis.

| Molecule | responsiveness to methyl mercaptan, dimethyl sulfide, dimethyl disulfide, or dimethyl trisulfide in the presence of a copper ion in comparison with that in the absence |
| --- | --- |
| B1 | improved in responsiveness |
| B2 | improved in responsiveness |
| B3 | improved in responsiveness |
| B4 | improved in responsiveness |
| B5 | improved in responsiveness |
| B6 | improved in responsiveness |
| B7 | improved in responsiveness |
| B8 | improved in responsiveness |

Biological target: T1, OR2T11
Assay: not given
Details: Block E et al., Nat. Prod. Rep. 2017; cited from earlier work

| Molecule | response of OR2T11 |
| --- | --- |
| CCCCS [1-butanethiol] | responds |
| CCC(C)S (stereo not drawn) [2-butanethiol] | responds |
| CCCS [1-propanethiol] | responds |
| CCS [ethanethiol] | responds |
| CC(C)C(C)S (stereo not drawn) [3-methyl-2-butanethiol] | responds |
| CC(C)CS [2-methyl-1-propanethiol] | responds |
| CCCC(C)S (stereo not drawn) [2-pentanethiol] | responds |
| CC(C)(C)S [2-methyl-2-propanethiol] | responds |
| CC(C)S [2-propanethiol] | responds |
| SC1CCCC1 [cyclopentanethiol] | responds |
